Values quoted from earlier work, collected in PMC2788793 (Molecular immunology, 2008).

Target: mouse H2-Kb molecule (Mus musculus, UniProt P01901)
Conditions: ref Apostolopoulos et al., 2003

mouse H2-Kb molecule, sequence (P01901 whole entry, looked up): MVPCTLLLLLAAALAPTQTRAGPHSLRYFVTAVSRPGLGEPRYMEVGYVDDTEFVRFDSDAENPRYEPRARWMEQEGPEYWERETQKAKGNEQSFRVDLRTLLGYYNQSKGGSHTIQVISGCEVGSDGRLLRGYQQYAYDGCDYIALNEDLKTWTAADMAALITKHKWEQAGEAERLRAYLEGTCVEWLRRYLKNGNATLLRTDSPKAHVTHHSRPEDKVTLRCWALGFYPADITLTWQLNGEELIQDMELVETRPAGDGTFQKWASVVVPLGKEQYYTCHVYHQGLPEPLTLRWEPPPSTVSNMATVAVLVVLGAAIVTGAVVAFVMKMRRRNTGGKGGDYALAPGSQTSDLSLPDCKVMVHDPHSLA

In the case of SAPDT(GalNAc-Gal)RPA, the “Binding to mouse H2-Kb molecule” value is given as “completely abolished its binding”.
